{"source": "patent US4617187A", "about": "“Therapeutic method for treating radiation ulcers” (Eisai Co., Ltd., priority 1983, dated 1986)", "key": {"radiation ulcer": {"system": "radiation ulcer", "assay": "Case 2: treatment of radiation ulcer of lower abdomen after cervical cancer radiation", "type": "in vivo, patient", "text": "This patient was subjected to postoperative radiation for the treatment of cervical cancer 18 years before. […] In the Case, the hyperbaric oxygen therapy, zinc sulfate, injectable glutathione, injectable intaserine and Bendazac ointment were applied intermittently in combination. […] Thus, the coating of a therapeutic preparation to be described in Example 1, which pertains to this invention, was initiated."}, "radiation ulcers [1]": {"system": "radiation ulcers", "assay": "Case 1: treatment of ulcer in irradiated chest wall after breast cancer", "type": "in vivo, patient", "conditions": "Case 1, after radiotherapy 40 Gy with oily bleomycin and carmofur ointment; peroral zinc sulfate and injection of intaserine to facilitate wound healing", "text": "Person, The patient underwent a surgery on […] left breast cancer. It recurred in their left chest wall seven years later, resulting in the formation of a carcinomatous ulcer. This carcinomatous ulcer became resistant to the cryosurgery and carcinostatic chemotherapy, leading to need for the radiotherapy. The patient was exposed to a total radiation dose of 40 Gy while using oily bleomycin and carmofur ointment in combination with a view toward enhancing the effects of the radiotherapy. […] However, they fell down accidently at this stage and the wound was traumatized and ulcerated again. Thus, cythocrome c was injected and at the same time, Bendazac ointment was applied. […] At this stage, the coating of a therapeutic preparation to be described in Example 1, which pertains to the present invention, was started."}, "Wistar rats [2]": {"system": "Wistar rats", "assay": "Subacute toxicity, peroral, rats", "type": "in vivo", "conditions": "peroral 40, 200 and 1,000 mg/kg/day, 5 weeks, male and female Wistar rats", "protocol": "(§1) Ubidecarenone was perorally administered at 40, 200 and 1,000 mg/kg/day to male and female Wistar rats continuously over a period of 5 weeks and also at 60 and 600 mg/kg/day to male and female rabbits continuously over a period of 23 days."}, "skin [3]": {"system": "skin", "assay": "Cumulative skin irritation test", "type": "in vivo", "conditions": "1% in Squalane"}, "[4]": {"conditions": "cited from earlier work"}, "skin [5]": {"system": "skin", "assay": "Phototoxicity test", "type": "in vivo"}, "skin [6]": {"system": "skin", "assay": "Primary skin irritation test", "type": "in vivo", "conditions": "1% in Squalane"}, "rabbits": {"system": "rabbits", "assay": "Subacute toxicity, peroral, rabbits", "type": "in vivo", "conditions": "peroral 60 and 600 mg/kg/day, 23 days, male and female rabbits", "protocol": "as §1"}, "skin [7]": {"system": "skin", "assay": "Patch test", "type": "in vivo", "conditions": "1% in Squalane"}, "skin [8]": {"system": "skin", "assay": "Photochallenge (optical challenge) test (Adjuvante Strip method)", "type": "in vivo", "conditions": "Induction: 10% in Acetone", "text": "|Photo- Induction: 10% Acetone"}, "radiation ulcers [9]": {"system": "radiation ulcers", "assay": "Treatment of radiation ulcers (general statement)", "type": "in vivo", "conditions": "administration to an ulcerated site"}, "cardiac muscle": {"system": "cardiac muscle", "conditions": "known action, cited from earlier work"}, "skin [10]": {"system": "skin", "assay": "Stability and irritation when applied to the skin (general statement)"}, "skin [11]": {"system": "skin", "assay": "Challenge test (Adjuvante & Patch Method)", "type": "in vivo", "conditions": "Induction: 5% in Acetone", "text": "|Challenge Induction: 5% Acetone"}, "Wistar rats [12]": {"system": "Wistar rats", "assay": "Chronic toxicity, peroral, rats", "type": "in vivo", "conditions": "forced peroral 6, 60 and 600 mg/kg/day, 26 weeks, female and male Wistar rats", "protocol": "Ubidecarenone was forcedly and perorally administered at 6, 60 and 600 mg/kg/day to female and male Wistar rats continuously over a straight period of 26 weeks."}, "Blepharoirritation test": {"assay": "Blepharoirritation test", "type": "in vivo", "conditions": "1% in Squalane"}, "[13]": {"conditions": "Case 2, prior treatment applied intermittently in combination, with hyperbaric oxygen therapy"}}, "note": "Entries after “also recorded” stand apart in the source; their conditions may differ.", "data": [{"smiles": "N[C@@H](CCC(=O)N[C@@H](CS)C(=O)NCC(=O)O)C(=O)O", "note": "[glutathione]", "values": [{"measurement": "change of the ulcer", "setting": "radiation ulcer; [13]", "result": "the ulcer was not improved"}]}, {"smiles": "O=S(=O)([O-])[O-].[Zn+2]", "note": "[zinc sulfate]", "values": [{"measurement": "ulcer outcome", "setting": "radiation ulcers [1]", "result": "the ulcer became cancer-free and an eschar was produced"}, {"measurement": "change of the ulcer", "setting": "radiation ulcer; [13]", "result": "the ulcer was not improved"}]}, {"smiles": "COC1=C(OC)C(=O)C(C/C=C(\\C)CC/C=C(\\C)CC/C=C(\\C)CC/C=C(\\C)CC/C=C(\\C)CC/C=C(\\C)CC/C=C(\\C)CC/C=C(\\C)CC/C=C(\\C)CCC=C(C)C)=C(C)C1=O", "note": "[Ubidecarenone]", "values": [{"measurement": "general appearance, blood, urine test and morphological observation (visual and histological) vs control", "setting": "Wistar rats [2]", "result": "No differences were observed"}, {"measurement": "Cumulative skin irritation, Conclusion", "setting": "skin [3]", "result": "Little skin irri-"}, {"measurement": "Cumulative skin irritation, Results", "setting": "skin [3]", "result": 0.3}, {"measurement": "solubility in oil", "setting": "[4]; oil", "result": "oil-soluble"}, {"measurement": "solubility in water or methanol", "setting": "[4]; water or methanol", "result": "hardly soluble"}, {"measurement": "Phototoxicity, Conclusion", "setting": "skin [5]; 1% in Squalane", "result": "Little phototoxicity"}, {"measurement": "Phototoxicity, Conclusion", "setting": "skin [5]; 10% in Squalane", "result": "Little phototoxicity"}, {"measurement": "Primary irritation, Conclusion", "setting": "skin [6]", "result": "Little skin irri-"}, {"measurement": "Primary irritation, Results", "setting": "skin [6]", "result": 0.1}, {"measurement": "general appearance, blood, urine test and morphological observation (visual and histological) vs control", "setting": "rabbits", "result": "No differences were observed"}, {"measurement": "Patch test, Conclusion", "setting": "skin [7]", "result": "Little skin irri-"}, {"measurement": "Patch test, Results", "setting": "skin [7]", "result": "0/54"}, {"measurement": "Photochallenge, Conclusion", "setting": "skin [8]; challenge 10% in Acetone", "result": "Little photo-"}, {"measurement": "Photochallenge, Results", "setting": "skin [8]; challenge 10% in Acetone", "result": "0/5"}, {"measurement": "Photochallenge, Conclusion", "setting": "skin [8]; challenge conc. 0.5 in Acetone", "result": "Little photo-"}, {"measurement": "Photochallenge, Results", "setting": "skin [8]; challenge conc. 0.5 in Acetone", "result": "0/5"}, {"measurement": "Photochallenge, Conclusion", "setting": "skin [8]; challenge conc. 1 in Acetone", "result": "Little photo-"}, {"measurement": "Photochallenge, Results", "setting": "skin [8]; challenge conc. 1 in Acetone", "result": "0/5"}, {"measurement": "Photochallenge, Conclusion", "setting": "skin [8]; challenge conc. 2 in Acetone", "result": "Little photo-"}, {"measurement": "Photochallenge, Results", "setting": "skin [8]; challenge conc. 2 in Acetone", "result": "0/5"}, {"measurement": "Photochallenge, Conclusion", "setting": "skin [8]; challenge conc. 5 in Acetone", "result": "Little photo-"}, {"measurement": "Photochallenge, Results", "setting": "skin [8]; challenge conc. 5 in Acetone", "result": "0/5"}, {"measurement": "curing of radiation ulcers", "setting": "radiation ulcers [9]", "result": "excellent curing results; also recorded: radiation ulcers can be successfully cured"}, {"measurement": "ATP-yielding function", "setting": "cardiac muscle; cardiac muscle in an ischemic state", "result": "maintain the ATP-yielding function at a high level even when the cardiac muscle is in an ischemic state"}, {"measurement": "disorders of ischemic cardiac muscle tissue", "setting": "cardiac muscle", "result": "can reduce disorders, which the tissue of ischemic cardiac muscle would develop"}, {"measurement": "drop of heart contraction function", "setting": "cardiac muscle", "result": "improve the drop of heart contraction function"}, {"measurement": "percentage oxygen utilization of cardiac muscle", "setting": "cardiac muscle", "result": "can improve the percentage oxygen utilization of cardiac muscle"}, {"measurement": "irritation to the skin", "setting": "skin [10]", "result": "little irritation to the skin"}, {"measurement": "stability when applied to the skin", "setting": "skin [10]", "result": "good stability"}, {"measurement": "change of the ulcer", "setting": "radiation ulcer; Case 2, oral ubidecarenone therapy, 2 months", "result": "no change was observed as to the ulcer"}, {"measurement": "Challenge, Conclusion", "setting": "skin [11]; challenge 1% in Acetone", "result": "Little challenge"}, {"measurement": "Challenge, Results", "setting": "skin [11]; challenge 1% in Acetone", "result": "0/10"}, {"measurement": "Challenge, Conclusion", "setting": "skin [11]; challenge 5% in Acetone", "result": "Little challenge"}, {"measurement": "Challenge, Results", "setting": "skin [11]; challenge 5% in Acetone", "result": "0/10"}, {"measurement": "general appearance, blood, urine test and morphological observation (visual and histological) vs control", "setting": "Wistar rats [12]", "result": "no differences were observed"}, {"measurement": "Blepharoirritation, Conclusion", "setting": "Blepharoirritation test", "result": "Little blepharo-"}]}]}
